According to patent publication US8476302B2, “α-ketoamide derivatives useful endothelial lipase inhibitors” (Janssen Pharmaceutica N.V., priority 2010, dated 2013):
Where “and” joins values, the source holds several entries; their conditions need not be identical. Equal entries are not always repeated.

Columns and labels:
Mouse EL = target: T1, Mouse EL (Mus musculus, UniProt Q9WVG5); experiment: Endothelial Lipase Assay, cell surface lipase activity (mouse); assay type: cell-based; conditions: PLA1 substrate 10 μM, fluorescence reaction rate, several values in a cell are repeat determinations
T1 construct: host or cells: not described for mouse EL
T1 sequence (Q9WVG5 21-500): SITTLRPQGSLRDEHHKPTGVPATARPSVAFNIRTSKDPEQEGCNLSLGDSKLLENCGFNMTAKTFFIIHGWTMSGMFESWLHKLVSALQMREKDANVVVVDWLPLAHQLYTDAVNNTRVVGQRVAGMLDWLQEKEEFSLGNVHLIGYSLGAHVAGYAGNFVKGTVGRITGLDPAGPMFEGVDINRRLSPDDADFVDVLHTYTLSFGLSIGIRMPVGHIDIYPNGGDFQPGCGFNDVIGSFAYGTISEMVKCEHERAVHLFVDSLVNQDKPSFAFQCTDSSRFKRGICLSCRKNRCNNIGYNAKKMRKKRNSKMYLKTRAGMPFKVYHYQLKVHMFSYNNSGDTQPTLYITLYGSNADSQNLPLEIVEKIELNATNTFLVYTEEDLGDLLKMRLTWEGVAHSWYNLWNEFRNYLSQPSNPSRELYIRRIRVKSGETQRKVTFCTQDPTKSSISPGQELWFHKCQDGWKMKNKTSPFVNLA
Experimental: (§1) Endothelial Lipase Assay (Human/Mouse)
(§2) To assay for cell surface lipase activity, cells expressing human endothelial lipase (EL) or LPL were plated in CellBIND® 384-well plates (Corning, Lowell, Mass.) in 25 μL serum free medium at a density of 2000 cells/well. After 18-24 hours incubation at 37° C., the medium was removed and replaced with 15 μL assay buffer [Hank's Buffered Saline Solution with 25 mM HEPES pH 7.2] and 15 μL PLA1 for a final concentration of 10 μM using a Multidrop reagent dispenser. Fluorescence signal was monitored for 30 min at 37° C. on a Safire II plate reader in kinetic mode (60 cycles, kinetic interval: 30 seconds) with an excitation wavelength of 490 nm and an emission wavelength of 515 nm. Linear regression of the fluorescence intensity collected from 480 to 1500 seconds was used to calculate the reaction rate (the slope) and the slopes were used to calculate IC50 values where appropriate. The amount of BODIPY-labeled product generated was calculated at the 30 min time point as determined from standard curve analysis of purified BODIPY FL C5. In all studies using the inhibitor Ebelactone B, consistent results were obtained when it was dissolved as a stock in DMSO, immediately before use.

[1] = target: T2, human endothelial lipase (EL) (Homo sapiens, UniProt Q9Y5X9); experiment: Endothelial Lipase Assay, cell surface lipase activity (human); assay type: cell-based; conditions: cells expressing human EL, PLA1 substrate 10 μM, fluorescence reaction rate; several values in a cell are repeat determinations
T2 construct: host or cells: cells expressing human endothelial lipase
T2 sequence (Q9Y5X9 21-500): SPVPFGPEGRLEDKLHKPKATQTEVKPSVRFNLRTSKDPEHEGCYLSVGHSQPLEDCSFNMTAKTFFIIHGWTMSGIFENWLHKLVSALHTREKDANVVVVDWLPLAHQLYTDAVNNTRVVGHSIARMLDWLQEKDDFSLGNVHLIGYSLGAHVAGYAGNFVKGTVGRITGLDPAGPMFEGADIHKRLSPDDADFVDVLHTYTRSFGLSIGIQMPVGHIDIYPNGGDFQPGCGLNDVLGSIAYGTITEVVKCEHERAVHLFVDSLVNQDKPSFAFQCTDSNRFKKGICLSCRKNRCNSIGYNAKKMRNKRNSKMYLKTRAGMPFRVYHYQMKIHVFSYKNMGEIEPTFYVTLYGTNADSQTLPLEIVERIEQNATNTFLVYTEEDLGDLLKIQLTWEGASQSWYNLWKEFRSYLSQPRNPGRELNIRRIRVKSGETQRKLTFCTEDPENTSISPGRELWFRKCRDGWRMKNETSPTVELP
Experimental: as §1, §2

SMILES | IC50 (Mouse EL) | IC50 [1]
O=C(CCCCCCc1cccc(OC(F)(F)F)c1)C(=O)NCc1nnc(-c2ccccc2)o1 [Compound 49] | 312 nM | 561 nM
O=C(CCCCCCc1ccccc1)C(=O)NCc1nnc(-c2ccc(OCc3ccnc(F)c3)cc2)s1 [Compound 152] | 207 nM and 48 nM | 115 nM and 42 nM
O=C(CCCCCCc1ccc(F)nc1)C(=O)NCc1nnc(-c2ccc(Oc3ccccc3)cc2)o1 [Compound 127] | 281 nM | 308 nM
O=C(CCCCCOc1cccc(F)c1)C(=O)NCc1nnc(-c2ccc(OCc3ccccc3)cc2)o1 [Compound 69, N-((5-(4-(benzyloxy)phenyl)-1,3,4-oxadiazol-2-yl)methyl)-7-(3-fluorophenoxy)-2-oxoheptanamide] | 835 nM | 272 nM
O=C(CCCCCCc1ccccc1)C(=O)NCc1nnc(-c2ccc(OCc3cccc(F)c3)cc2)s1 [Compound 128, N-((5-(4-((3-fluorobenzyl)oxy)phenyl)-1,3,4-thiadiazol-2-yl)methyl)-2-oxo-8-phenyloctanamide] | 87 nM | 129 nM
O=C(CCCCCOc1ccc(F)cc1F)C(=O)NCc1nnc(-c2ccc(Oc3ccccc3)cc2)o1 [Compound 92] | 911 nM | 432 nM
O=C(CCCCCCc1ccc(F)cc1)C(=O)NCc1nnc(-c2ccc3ccccc3c2)o1 [Compound 30] | 205 nM | 523 nM
O=C(CCCCCCc1ccccc1)C(=O)NCc1nnc(-c2ccc(OCc3cccc(Br)n3)cc2)s1 [Compound 162] | 202 nM | 1340 nM
Cc1ncsc1CCCCCCC(=O)C(=O)NCc1nnc(-c2ccc(OCc3ccncc3)cc2)s1 [Compound 166] | 479 nM | 809 nM
Cc1ccc(-c2nnc(CNC(=O)C(=O)CCCCCc3ccc(-c4ccccc4)cc3)o2)cc1 [Compound 37] | 1470 nM | 2530 nM
COc1cccc(C#CCCCC(=O)C(=O)NCc2nnc(-c3ccccc3)o2)c1 [Compound 40] | 33300 nM | 33300 nM
O=C(CCCCCCc1ccccc1)C(=O)NCc1nnc(-c2ccc(OCc3ccncc3F)cc2)s1 [Compound 161] | 37 nM | 93 nM
O=C(CCCCCCc1ccccc1)C(=O)NCc1nnc(-c2ccc(OCc3cc(F)cc(F)c3)cc2)s1 [Compound 146] | 224 nM | 2320 nM
COc1cccc(OCCCCCC(=O)C(=O)NCc2nnc(-c3ccccc3)o2)c1 [Compound 63] | 6120 nM | 5450 nM
O=C(CCCCCCc1ccccc1)C(=O)NCc1nnc(-c2ccc(OCc3cccc(Cl)n3)cc2)s1 [Compound 164] | 232 nM | 751 nM
O=C(CCCCCCc1ccccc1)C(=O)NCc1nnc(-c2ccc(OCc3ccncc3)cc2)o1 [Compound 86] | 72 nM | 156 nM
O=C(CCCCCCc1ccc(F)nc1)C(=O)NCc1nnc(-c2ccc(OCc3cccc(F)c3)cc2)s1 [Compound 165] | 48 nM | 48 nM
COc1cccc(CCCCCCC(=O)C(=O)NCc2nnc(-c3ccc(C)cc3)o2)c1 [Compound 32] | 165 nM | 213 nM
O=C(CCCCCCc1ccccc1)C(=O)NCc1nnc(-c2ccc(F)c(F)c2)o1 [Compound 20] | 552 nM | 490 nM
O=C(CCCCCCc1ccccc1)C(=O)NCc1nnc(-c2ccc(OCc3ccccc3F)cc2)s1 [Compound 145] | 168 nM | 312 nM
O=C(CCCCCCc1ccccc1)C(=O)NCc1nnc(-c2ccc3c(=O)n4c(nc3c2)CCC4)o1 [Compound 19] | 3050 nM | 5380 nM
O=C(CCCCCCc1ccccc1)C(=O)NCc1nnc(-c2ccc(OCc3ccncn3)cc2)o1 [Compound 107] | 216 nM | 345 nM
O=C(CCCCC=Cc1ccccc1)C(=O)NCc1nnc(-c2ccc(Oc3ccccc3)cc2)o1 [Compound 143] | 11100 nM | 7690 nM

SMILES | IC50 (Mouse EL) | IC50 [1]
O=C(CCCCCCc1ccccc1)C(=O)NCc1nnc(-c2ccc(OCc3ccnc(Cl)c3)cc2)s1 [Compound 173] | 17 nM | 37 nM
COc1ccc(COc2ccc(-c3nnc(CNC(=O)C(=O)CCCCCCc4ccccc4)o3)cc2)cc1 [Compound 81] | 8340 nM | 11500 nM
O=C(CCCCCOc1ccc(F)cc1F)C(=O)NCc1nnc(-c2ccc(OCc3ccccc3)cc2)o1 [Compound 99] | 1050 nM | 2150 nM
O=C(CCCCCCc1ccccc1)C(=O)NCc1nnc(-c2ccc(NCc3cccnc3)cc2)o1 [Compound 124] | 2930 nM | 3610 nM
O=C(CCCCCCc1cccnc1F)C(=O)NCc1nnc(-c2ccc(Oc3ccccc3)cc2)o1 [Compound 119] | 904 nM | 979 nM
COc1cccc(CCCCCCC(=O)C(=O)NCc2nnc(-c3ccc4ccccc4c3)o2)c1 [Compound 31] | 120 nM | 141 nM
O=C(CCCCCCc1ccccc1)C(=O)NCc1nnc(-c2cccc(Cl)c2)o1 [Compound 18] | 346 nM | 440 nM
O=C(CCCCCCc1ccccc1)C(=O)NCc1nnc(-c2ccc(F)cc2)o1 [Compound 15] | 1020 nM | 735 nM
O=C(CCCCCOc1cccc(F)c1F)C(=O)NCc1nnc(-c2ccc(Oc3ccccc3)cc2)o1 [Compound 102] | 809 nM | 1970 nM
O=C(CCCCCOc1cccc(Cl)c1)C(=O)NCc1nnc(-c2ccc(Oc3ccccc3)cc2)s1 [Compound 134] | 243 nM | 604 nM
O=C(CCCCCCc1ccccc1)C(=O)NCc1nnc(-c2ccc(OCc3cccc(F)n3)cc2)o1 [Compound 121] | 187 nM | 471 nM
CC(=O)Nc1ccc(CCCCCCC(=O)C(=O)NCc2nnc(-c3ccc(OCc4cccc(F)c4)cc3)s2)cn1 [Compound 157] | 1280 nM | 511 nM
O=C(CCCCCOc1cc(F)cc(F)c1)C(=O)NCc1nnc(-c2ccc(Oc3ccccc3)cc2)s1 [Compound 133] | 176 nM | 386 nM
COc1ccc(C#CCCCC(=O)C(=O)NCc2nnc(-c3ccccc3)o2)cc1 [Compound 41] | 24100 nM | 27200 nM
O=C(CCCCCCc1ccccc1)C(=O)NCc1nnc(-c2ccc(OCc3ccc(F)cc3)cc2)o1 [Compound 80] | 214 nM | 600 nM
O=C(CCCCCCc1ccc(F)nc1)C(=O)NCc1nnc(-c2ccc(OCc3ccccn3)cc2)s1 [Compound 167] | 217 nM | 360 nM
O=C(CCCCCCc1ccccc1)C(=O)NCc1nnc(-c2ccc(Oc3ccc(Cl)cc3)cc2)o1 [Compound 59] | 1110 nM | 2590 nM
O=C(CCCCCCc1ccccc1)C(=O)NCc1nnc(-c2ccc(OCc3ccccc3)cc2)s1 [Compound 129] | 264 nM | 325 nM
O=C(CCCCCOc1c(F)cccc1F)C(=O)NCc1nnc(-c2ccc(Oc3ccccc3)cc2)o1 [Compound 93] | 1480 nM | 3060 nM
CN(Cc1ccc(F)c(F)c1)c1ccc(-c2nnc(CNC(=O)C(=O)CCCCCCc3ccccc3)o2)cc1 [Compound 110] | 346 nM | 677 nM
O=C(CCCCCOc1cccc(F)c1)C(=O)NCc1nnc(-c2ccccc2)o1 [Compound 53] | 5910 nM | 4740 nM
O=C(CCCCC#Cc1ccccc1)C(=O)NCc1nnc(-c2ccccc2)o1 [Compound 43] | 2650 nM | 2410 nM
